The text below walks through data of ChEMBL document CHEMBL4325851, “Synthesis of aminopyrazole analogs and their evaluation as CDK inhibitors for cancer therapy” (Bioorg Med Chem Lett, 2018).

In assay [1] the target is Cyclin-dependent kinase 5/CDK5 activator 1 (Homo sapiens) (UniProt Q00535+Q15078). As to the kind of experiment: Inhibition of CDK5/p35 (unknown origin) at 100 nM in presence of ATP relative to control. The format is protein-complex assay.
Assay [2] relates to MIA PaCa-2. Description: Induction of apoptosis in human MIAPaCa2 cells assessed as increase in caspases 3/7 activity at 10 uM after 12 hrs by Caspase-Glo assay relative to control. The class given is functional.
In a further assay the test system is ASPC1. Description: Antiproliferative activity against human AsPC1 cells after 72 hrs by prestoblue assay. The class given is functional, cell-based. The following applies: ASPC1, 72 h.
A further assay relates to BXPC-3. As to the kind of experiment: Antiproliferative activity against human BxPC3 cells after 72 hrs by prestoblue assay. The following applies: BXPC-3, 72 h. The class given is functional, cell-based.
Assay [3] concerns MIA PaCa-2. Description: Antiproliferative activity against human MIAPaCa2 cells after 72 hrs by prestoblue assay. The format is functional, cell-based. The following applies: MIA PaCa-2, 72 h.
A short description of assay [4]: Antiproliferative activity against human SUIT2 cells after 72 hrs by prestoblue assay. The class given is functional, cell-based. The note with it: SUIT-2, 72 h.
A short description of assay [5]: Antiproliferative activity against human S2-013 cells after 72 hrs by prestoblue assay. The format is functional, cell-based.
Assay [6] addresses Cyclin-dependent kinase 2/cyclin E1 (Homo sapiens, UniProt P24941). As to the kind of experiment: Inhibition of CDK2/CyclinE (unknown origin) in presence of ATP. The class given is protein-complex assay.
The target in assay [7] is Cyclin-dependent kinase 5/CDK5 activator 1 (Homo sapiens, UniProt Q00535). As to the kind of experiment: Inhibition of CDK5/p35 (unknown origin) in presence of ATP. The format is protein-complex assay.
Assay [8] addresses Cyclin-dependent kinase 9 (Homo sapiens, UniProt P50750). As to the kind of experiment: Inhibition of CDK9 (unknown origin).
Assay [9] addresses Tyrosine-protein kinase BTK (Homo sapiens, UniProt Q06187). Description: Inhibition of BTK (unknown origin).
Assay [10] addresses T1, Inhibitor of nuclear factor kappa-B kinase subunit beta (Homo sapiens, UniProt O14920).
T1 sequence (O14920 whole entry): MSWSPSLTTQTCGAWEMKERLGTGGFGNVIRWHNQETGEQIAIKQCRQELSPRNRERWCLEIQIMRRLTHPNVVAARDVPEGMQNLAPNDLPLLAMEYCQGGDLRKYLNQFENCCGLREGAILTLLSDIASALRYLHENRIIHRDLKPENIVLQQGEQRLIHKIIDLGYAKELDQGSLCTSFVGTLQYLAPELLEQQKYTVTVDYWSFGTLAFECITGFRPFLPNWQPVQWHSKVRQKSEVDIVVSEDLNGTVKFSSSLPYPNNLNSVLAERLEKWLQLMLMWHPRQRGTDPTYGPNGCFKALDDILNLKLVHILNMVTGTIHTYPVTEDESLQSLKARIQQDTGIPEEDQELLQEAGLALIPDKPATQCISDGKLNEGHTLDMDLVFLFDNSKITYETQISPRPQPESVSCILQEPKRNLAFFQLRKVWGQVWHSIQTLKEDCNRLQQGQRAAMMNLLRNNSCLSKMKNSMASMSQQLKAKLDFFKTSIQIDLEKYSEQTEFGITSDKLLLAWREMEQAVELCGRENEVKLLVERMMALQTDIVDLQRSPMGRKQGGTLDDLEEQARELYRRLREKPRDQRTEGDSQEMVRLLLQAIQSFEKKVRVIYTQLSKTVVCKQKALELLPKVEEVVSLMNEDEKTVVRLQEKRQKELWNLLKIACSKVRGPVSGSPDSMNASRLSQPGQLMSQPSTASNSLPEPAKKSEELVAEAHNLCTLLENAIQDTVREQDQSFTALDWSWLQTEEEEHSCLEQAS
As to the kind of experiment: Inhibition of IKKbeta (unknown origin).

The next assay deals with T2, Aurora kinase A (Homo sapiens, UniProt O14965).
T2 sequence (O14965 whole entry): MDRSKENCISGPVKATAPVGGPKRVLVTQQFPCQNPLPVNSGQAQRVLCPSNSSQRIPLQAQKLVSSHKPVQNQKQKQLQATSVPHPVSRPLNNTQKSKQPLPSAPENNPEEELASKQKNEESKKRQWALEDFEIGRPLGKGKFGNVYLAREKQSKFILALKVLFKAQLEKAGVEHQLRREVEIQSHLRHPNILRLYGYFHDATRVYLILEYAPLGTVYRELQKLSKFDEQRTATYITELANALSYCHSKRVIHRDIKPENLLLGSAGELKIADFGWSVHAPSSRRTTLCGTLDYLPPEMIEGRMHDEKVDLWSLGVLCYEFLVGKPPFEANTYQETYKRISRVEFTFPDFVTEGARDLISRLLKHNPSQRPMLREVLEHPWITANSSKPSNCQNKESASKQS
Description: Inhibition of Aurora A (unknown origin).

Another assay addresses Aurora kinase B (Homo sapiens, UniProt Q96GD4). As to the kind of experiment: Inhibition of Aurora B (unknown origin).
The target in assay [11] is T3, Mitogen-activated protein kinase kinase kinase 12 (Homo sapiens, UniProt Q12852).
T3 sequence (Q12852 whole entry): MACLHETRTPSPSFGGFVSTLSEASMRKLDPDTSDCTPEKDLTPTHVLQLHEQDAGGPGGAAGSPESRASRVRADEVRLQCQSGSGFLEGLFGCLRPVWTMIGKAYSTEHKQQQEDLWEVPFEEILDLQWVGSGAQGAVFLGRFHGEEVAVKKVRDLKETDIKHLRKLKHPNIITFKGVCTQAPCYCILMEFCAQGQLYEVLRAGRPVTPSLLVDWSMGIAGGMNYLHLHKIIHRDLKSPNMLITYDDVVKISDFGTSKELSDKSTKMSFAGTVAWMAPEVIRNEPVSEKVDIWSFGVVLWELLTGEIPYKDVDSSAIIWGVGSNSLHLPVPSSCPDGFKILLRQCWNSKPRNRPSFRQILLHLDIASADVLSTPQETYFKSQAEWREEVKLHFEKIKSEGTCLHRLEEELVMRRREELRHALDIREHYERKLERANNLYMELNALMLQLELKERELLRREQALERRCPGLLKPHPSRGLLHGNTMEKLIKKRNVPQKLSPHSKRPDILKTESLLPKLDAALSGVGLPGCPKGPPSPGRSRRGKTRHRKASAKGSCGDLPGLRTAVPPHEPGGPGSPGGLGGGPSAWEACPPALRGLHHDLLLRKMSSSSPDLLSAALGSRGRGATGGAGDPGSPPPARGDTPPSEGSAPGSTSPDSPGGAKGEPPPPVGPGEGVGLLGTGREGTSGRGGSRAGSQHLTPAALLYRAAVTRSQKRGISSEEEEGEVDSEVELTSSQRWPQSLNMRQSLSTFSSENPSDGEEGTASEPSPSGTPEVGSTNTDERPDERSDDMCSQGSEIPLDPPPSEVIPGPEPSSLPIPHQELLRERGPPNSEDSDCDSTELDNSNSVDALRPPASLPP
As to the kind of experiment: Inhibition of DLK (unknown origin).

The target of assay [12] is T4, Tyrosine-protein kinase ITK/TSK (Homo sapiens, UniProt Q08881).
T4 sequence (Q08881 whole entry): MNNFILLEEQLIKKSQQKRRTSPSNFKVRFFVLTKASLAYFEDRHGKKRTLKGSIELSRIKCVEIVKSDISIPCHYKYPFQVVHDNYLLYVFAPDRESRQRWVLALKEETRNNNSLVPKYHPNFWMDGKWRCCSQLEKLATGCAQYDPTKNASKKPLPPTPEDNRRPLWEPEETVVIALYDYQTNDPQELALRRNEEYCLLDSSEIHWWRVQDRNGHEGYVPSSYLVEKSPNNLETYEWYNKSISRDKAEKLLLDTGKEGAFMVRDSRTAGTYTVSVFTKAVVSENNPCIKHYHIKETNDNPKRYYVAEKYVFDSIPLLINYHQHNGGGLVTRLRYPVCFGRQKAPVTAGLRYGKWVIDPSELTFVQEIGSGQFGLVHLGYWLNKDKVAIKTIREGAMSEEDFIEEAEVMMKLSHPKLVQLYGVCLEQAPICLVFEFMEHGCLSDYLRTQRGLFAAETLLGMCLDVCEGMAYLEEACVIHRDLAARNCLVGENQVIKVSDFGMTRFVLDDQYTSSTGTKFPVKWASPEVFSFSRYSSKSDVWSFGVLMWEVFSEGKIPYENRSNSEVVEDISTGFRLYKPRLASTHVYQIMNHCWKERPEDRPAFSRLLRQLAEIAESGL
As to the kind of experiment: Inhibition of ITK (unknown origin).

The target in assay [13] is Mitogen-activated protein kinase 10 (Homo sapiens, UniProt P53779). Description: Inhibition of JNK3 (unknown origin) after 22 mins by homogeneous time-resolved fluorescence assay.
For assay [14], the target named is Mitogen-activated protein kinase 14 (Homo sapiens, UniProt Q16539). As to the kind of experiment: Inhibition of MAPK14 (unknown origin) after 22 mins by homogeneous time-resolved fluorescence assay.
The target in assay [15] is Serine/threonine-protein kinase PAK 1 (Homo sapiens, UniProt Q13153). As to the kind of experiment: Inhibition of PAK1 (unknown origin).
Assay [16] concerns the target High affinity nerve growth factor receptor (Homo sapiens, UniProt P04629). As to the kind of experiment: Inhibition of TRKA (unknown origin).
The target of assay [17] is Leucine-rich repeat serine/threonine-protein kinase 2 (Homo sapiens, UniProt Q5S007). Description: Inhibition of LRRK2 (unknown origin).
Assay [18] is filed under the species Homo sapiens. As to the kind of experiment: Selectivity ratio of IC50 for CDK9 (unknown origin) to IC50 for CDK2/CyclinE (unknown origin).
The species named for assay [19] is Homo sapiens. As to the kind of experiment: Selectivity ratio of IC50 for CDK9 (unknown origin) to IC50 for CDK5/p35 (unknown origin).

SMILES strings stand for the structures.

Sequence of Cyclin-dependent kinase 5/CDK5 activator 1 (Homo sapiens) (Q00535 whole entry): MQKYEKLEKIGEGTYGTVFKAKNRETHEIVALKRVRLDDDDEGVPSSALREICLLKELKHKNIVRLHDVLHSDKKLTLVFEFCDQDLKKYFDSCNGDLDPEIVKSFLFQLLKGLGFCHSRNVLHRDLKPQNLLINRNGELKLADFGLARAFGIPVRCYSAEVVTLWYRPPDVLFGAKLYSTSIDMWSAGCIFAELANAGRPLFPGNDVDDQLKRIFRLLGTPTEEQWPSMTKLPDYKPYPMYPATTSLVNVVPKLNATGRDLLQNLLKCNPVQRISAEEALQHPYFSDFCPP
Sequence of Cyclin-dependent kinase 5/CDK5 activator 1 (Homo sapiens) (Q15078 99-307 partner limits assumed): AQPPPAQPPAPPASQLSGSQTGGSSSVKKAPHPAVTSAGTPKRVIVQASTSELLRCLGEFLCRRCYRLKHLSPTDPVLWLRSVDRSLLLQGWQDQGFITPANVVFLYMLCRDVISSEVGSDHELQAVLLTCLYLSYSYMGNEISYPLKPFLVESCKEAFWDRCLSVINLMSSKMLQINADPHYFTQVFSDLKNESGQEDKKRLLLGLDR
Sequence of Cyclin-dependent kinase 9 (P50750 whole entry): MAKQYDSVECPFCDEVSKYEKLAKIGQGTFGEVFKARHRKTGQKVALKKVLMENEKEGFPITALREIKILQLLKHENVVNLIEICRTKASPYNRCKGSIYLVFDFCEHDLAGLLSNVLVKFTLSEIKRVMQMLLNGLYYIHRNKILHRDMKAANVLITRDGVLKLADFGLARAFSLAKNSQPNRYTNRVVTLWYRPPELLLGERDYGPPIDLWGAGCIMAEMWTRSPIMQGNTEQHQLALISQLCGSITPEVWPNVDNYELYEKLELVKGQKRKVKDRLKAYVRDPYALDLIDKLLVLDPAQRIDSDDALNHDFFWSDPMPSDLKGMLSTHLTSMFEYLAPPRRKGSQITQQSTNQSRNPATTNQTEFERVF
Sequence of Mitogen-activated protein kinase 14 (Q16539 whole entry): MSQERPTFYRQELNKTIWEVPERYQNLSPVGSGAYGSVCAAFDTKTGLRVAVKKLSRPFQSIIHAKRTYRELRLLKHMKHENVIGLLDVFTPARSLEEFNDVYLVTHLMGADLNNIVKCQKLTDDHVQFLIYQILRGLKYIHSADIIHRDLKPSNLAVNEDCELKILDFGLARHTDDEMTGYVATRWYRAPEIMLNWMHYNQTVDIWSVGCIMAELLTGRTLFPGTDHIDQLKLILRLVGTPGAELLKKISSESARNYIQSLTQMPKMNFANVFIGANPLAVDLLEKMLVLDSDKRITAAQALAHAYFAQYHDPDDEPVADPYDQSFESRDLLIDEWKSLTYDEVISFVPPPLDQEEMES
Sequence of Cyclin-dependent kinase 5/CDK5 activator 1 (Q00535 whole entry): as the sequence (Q00535 whole entry) above
Sequence of Cyclin-dependent kinase 5/CDK5 activator 1 (Q15078 whole entry, further chain): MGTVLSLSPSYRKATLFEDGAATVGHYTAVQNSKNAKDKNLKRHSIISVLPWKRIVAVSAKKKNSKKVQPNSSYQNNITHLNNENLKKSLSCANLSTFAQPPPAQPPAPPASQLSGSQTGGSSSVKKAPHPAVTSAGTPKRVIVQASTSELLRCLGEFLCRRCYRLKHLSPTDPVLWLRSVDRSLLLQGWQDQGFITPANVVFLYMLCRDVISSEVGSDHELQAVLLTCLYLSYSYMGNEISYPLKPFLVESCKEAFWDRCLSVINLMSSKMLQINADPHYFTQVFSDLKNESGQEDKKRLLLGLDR
Sequence of Aurora kinase B (Q96GD4 whole entry): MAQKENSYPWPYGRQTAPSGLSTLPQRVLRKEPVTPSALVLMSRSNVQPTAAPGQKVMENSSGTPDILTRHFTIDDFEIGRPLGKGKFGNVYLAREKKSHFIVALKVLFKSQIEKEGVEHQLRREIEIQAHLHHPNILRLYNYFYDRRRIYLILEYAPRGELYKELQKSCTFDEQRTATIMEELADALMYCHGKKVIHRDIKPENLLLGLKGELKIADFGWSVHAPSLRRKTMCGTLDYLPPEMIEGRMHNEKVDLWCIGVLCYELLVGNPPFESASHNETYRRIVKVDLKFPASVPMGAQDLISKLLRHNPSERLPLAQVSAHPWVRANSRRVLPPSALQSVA
Sequence of Leucine-rich repeat serine/threonine-protein kinase 2 (Q5S007 whole entry): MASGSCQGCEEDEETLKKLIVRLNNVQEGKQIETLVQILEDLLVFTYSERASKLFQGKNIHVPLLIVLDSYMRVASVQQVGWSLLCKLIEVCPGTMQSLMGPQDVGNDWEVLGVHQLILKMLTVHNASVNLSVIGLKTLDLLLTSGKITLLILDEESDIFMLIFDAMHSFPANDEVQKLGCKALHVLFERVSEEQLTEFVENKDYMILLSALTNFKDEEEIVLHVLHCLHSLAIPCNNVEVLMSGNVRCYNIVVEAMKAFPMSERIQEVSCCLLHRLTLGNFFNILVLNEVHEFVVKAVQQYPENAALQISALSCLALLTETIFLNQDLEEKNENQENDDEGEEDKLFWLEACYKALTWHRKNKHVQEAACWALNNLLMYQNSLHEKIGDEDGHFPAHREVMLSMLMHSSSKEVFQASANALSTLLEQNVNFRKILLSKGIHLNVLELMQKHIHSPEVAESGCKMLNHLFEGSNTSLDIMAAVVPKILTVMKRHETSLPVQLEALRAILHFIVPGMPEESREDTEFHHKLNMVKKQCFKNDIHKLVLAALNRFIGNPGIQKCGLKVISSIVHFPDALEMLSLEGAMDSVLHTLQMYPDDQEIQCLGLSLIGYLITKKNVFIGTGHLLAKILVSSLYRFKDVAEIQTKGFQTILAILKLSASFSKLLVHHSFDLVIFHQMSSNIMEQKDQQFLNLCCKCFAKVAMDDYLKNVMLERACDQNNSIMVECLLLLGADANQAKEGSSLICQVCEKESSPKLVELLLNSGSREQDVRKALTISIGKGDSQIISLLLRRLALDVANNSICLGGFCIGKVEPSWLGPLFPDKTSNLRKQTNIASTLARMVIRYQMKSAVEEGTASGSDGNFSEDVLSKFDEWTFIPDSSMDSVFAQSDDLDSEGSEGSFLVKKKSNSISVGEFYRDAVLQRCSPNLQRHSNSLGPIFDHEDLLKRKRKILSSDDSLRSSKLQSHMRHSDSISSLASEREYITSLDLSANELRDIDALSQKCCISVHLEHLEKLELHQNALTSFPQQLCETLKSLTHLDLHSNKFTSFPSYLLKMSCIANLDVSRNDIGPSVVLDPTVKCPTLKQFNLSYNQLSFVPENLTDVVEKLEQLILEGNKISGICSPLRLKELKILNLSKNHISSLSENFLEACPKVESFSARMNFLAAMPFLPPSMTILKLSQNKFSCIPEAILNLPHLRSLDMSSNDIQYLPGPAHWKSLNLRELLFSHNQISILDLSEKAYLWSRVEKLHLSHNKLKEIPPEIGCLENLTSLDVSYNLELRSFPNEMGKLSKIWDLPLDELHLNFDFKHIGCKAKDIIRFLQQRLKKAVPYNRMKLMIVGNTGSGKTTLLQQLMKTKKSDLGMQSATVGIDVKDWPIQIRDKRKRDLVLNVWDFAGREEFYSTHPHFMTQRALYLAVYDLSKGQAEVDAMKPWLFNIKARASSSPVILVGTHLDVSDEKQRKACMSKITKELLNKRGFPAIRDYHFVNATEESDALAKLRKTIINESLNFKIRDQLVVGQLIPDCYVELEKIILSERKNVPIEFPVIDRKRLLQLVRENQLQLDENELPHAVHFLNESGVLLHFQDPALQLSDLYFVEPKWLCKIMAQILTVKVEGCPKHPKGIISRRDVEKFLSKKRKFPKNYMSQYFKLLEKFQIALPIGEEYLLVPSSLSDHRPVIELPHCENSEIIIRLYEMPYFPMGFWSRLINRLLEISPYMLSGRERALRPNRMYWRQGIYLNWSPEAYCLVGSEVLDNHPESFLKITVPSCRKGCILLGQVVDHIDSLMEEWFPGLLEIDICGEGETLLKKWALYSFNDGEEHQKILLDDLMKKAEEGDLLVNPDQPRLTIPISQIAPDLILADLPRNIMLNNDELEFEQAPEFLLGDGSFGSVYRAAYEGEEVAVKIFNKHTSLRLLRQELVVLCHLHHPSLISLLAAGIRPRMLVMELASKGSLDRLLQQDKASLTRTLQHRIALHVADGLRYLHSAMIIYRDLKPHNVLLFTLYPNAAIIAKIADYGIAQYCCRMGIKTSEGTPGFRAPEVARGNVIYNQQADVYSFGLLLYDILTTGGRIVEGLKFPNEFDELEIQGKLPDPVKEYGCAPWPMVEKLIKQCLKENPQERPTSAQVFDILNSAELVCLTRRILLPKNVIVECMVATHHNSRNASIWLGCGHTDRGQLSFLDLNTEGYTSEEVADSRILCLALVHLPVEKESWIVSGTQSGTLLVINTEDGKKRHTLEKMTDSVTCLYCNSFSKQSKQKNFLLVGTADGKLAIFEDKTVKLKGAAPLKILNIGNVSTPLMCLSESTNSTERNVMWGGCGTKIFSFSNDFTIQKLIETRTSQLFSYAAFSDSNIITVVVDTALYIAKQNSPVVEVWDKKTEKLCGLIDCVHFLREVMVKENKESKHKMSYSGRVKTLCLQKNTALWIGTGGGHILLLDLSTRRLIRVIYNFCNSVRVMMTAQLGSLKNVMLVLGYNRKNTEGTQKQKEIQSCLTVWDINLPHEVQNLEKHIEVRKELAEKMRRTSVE

Turning to `COc1ccc(CC(=O)Nc2cc(C3CCC3)[nH]n2)cc1OC`, the inhibition in assay [1] was more than 90%. The “fold change (FC)” value in the assay on MIA PaCa-2 [2] is reported as less than 2.
The corresponding values for `O=C(C/C=C/c1ccccc1)Nc1cc(C2CCCC2)[nH]n1` are more than 90% and less than 2.
The corresponding values for `O=C(C/C=C/c1ccccc1)Nc1n[nH]c2ccccc12` are more than 90% and less than 2.
With `O=C(C/C=C/c1ccccc1)Nc1cc(C2CCC2)[nH]n1`, the inhibition in [1] was more than 90%. Besides, the “fold change (FC)” value in the assay on MIA PaCa-2 [2] is more than 2. For the same compound, the IC50 in the assay on ASPC1 was more than 2000 nM; in the assay with BXPC-3, more than 2000 nM; in the assay with MIA PaCa-2 [3], 1560 nM; in assay [4], more than 2000 nM; in assay [5] it was 1470 nM.
Take `O=C(Cc1ccc2c(c1)OCCO2)Nc1cc(C2CCCC2)[nH]n1`: the inhibition in [1] was more than 90%. In addition, the “fold change (FC)” value in the assay on MIA PaCa-2 [2] is less than 2.
For `O=C(Cc1ccc2ccccc2c1)Nc1cc(C2CCC2)[nH]n1`, in assay [1], the inhibition is more than 90%. Moreover, the “fold change (FC)” value in the assay with MIA PaCa-2 [2] is recorded as more than 2. The IC50 in the assay on ASPC1 is 1160 nM; with BXPC-3 it was more than 2000 nM; in [4], more than 2000 nM; in assay [5], 875 nM.
As to `O=C(Cc1ccc2c(c1)OCCO2)Nc1cc(C2CCC2)[nH]n1`, the inhibition in assay [1] is more than 90%. Besides, the “fold change (FC)” value with MIA PaCa-2 [2] is listed as less than 2.
The corresponding values for `Cc1cc(NC(=O)C/C=C/c2ccccc2)n[nH]1` are more than 90% and less than 2.
The corresponding values for `O=C(Cc1ccc2c(c1)OCCO2)Nc1cc(-c2ccccc2)[nH]n1` are more than 90% and less than 2.
Regarding `O=C(Cc1ccc(-c2ccccc2)cc1)Nc1cc(C2CCC2)[nH]n1`, the inhibition in assay [1] is more than 90%. In addition, the “fold change (FC)” value in the assay on MIA PaCa-2 [2] was more than 2. For the same compound, the IC50 was 315 nM in the assay with ASPC1; 247 nM with MIA PaCa-2 [3]; 209 nM in [4]; 192 nM in [5]; 24 nM in [6]; 23 nM in assay [7]. In addition, the IC50 is 911 nM in assay [8]; more than 10000 nM in assay [9]; more than 10000 nM in assay [10]; more than 10000 nM against Aurora kinase A; more than 10000 nM at Aurora kinase B; more than 10000 nM in assay [11]. For the same compound, the IC50 in assay [12], in [13], in [14], in assay [15], in assay [16] and in assay [17] was more than 10000 nM each time. The Ratio IC50 in the assay listed under Homo sapiens [18] and in the assay listed under Homo sapiens [19] was more than 35 throughout.
In the case of `Cc1cc(NC(=O)Cc2ccc3ccccc3c2)n[nH]1`, the inhibition in assay [1] was more than 90%. In the assay with MIA PaCa-2 [2], the “fold change (FC)” value is on record as less than 2.
`O=C(NC1CCNCC1)c1n[nH]cc1NC(=O)c1c(Cl)cccc1Cl` [AT-7519]: the IC50 with BXPC-3 came to 640 nM; in the assay with MIA PaCa-2 [3], 411 nM; in assay [4], 557 nM; in assay [5] it was 2770 nM.
As to `Cc1cc(NC(=O)Cc2ccc3c(c2)OCCO3)n[nH]1`, the inhibition in [1] was more than 90%. Also, the “fold change (FC)” value in the assay with MIA PaCa-2 [2] is less than 2.
For `COc1ccc(CC(=O)Nc2n[nH]c3ccccc23)cc1OC`, in that order: more than 90% and less than 2.
The corresponding values for `O=C(Cc1ccc2ccccc2c1)Nc1cc(C2CC2)n[nH]1` are more than 90% and less than 2.

Broadly, the inhibition is how much of the control response was suppressed. For orientation: IC50 means the point on the concentration scale where inhibition reaches its midpoint.
